The text below walks through data of patent US11168073B2, “3,3-difluoroallylamines or salts thereof and pharmaceutical compositions comprising the same” (YUHAN CORPORATION, priority 2018, dated 2021).

What all share (format): biochemical
Experiment [1] has as its target T1, recombinant human MAO-A (monoamine oxidase-A) (Homo sapiens, UniProt P21397).
T1 construct: purchased Sigma-Aldrich
T1 sequence (P21397 1-527): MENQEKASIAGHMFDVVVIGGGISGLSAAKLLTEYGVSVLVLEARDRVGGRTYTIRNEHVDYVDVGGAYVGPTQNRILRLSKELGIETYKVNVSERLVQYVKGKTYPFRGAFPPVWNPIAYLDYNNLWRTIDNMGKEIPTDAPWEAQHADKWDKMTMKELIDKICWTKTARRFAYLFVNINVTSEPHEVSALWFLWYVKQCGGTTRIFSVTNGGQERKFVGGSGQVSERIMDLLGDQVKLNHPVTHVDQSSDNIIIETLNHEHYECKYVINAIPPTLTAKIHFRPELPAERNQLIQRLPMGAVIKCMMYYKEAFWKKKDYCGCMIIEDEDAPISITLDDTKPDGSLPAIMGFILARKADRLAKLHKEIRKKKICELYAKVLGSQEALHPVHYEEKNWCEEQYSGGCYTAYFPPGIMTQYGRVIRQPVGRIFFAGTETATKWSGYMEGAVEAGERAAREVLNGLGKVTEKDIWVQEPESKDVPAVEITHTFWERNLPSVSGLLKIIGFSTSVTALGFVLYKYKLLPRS
Description: Activity evaluation on recombinant human MAO-A (Amplex Red/HRP-coupled assay, 0.5 mM tyramine substrate). To be noted: read-out: Inhibitory Activity (IC50, nM) MAO-A. An outline of the steps: (§1)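 Each oxidase is tested with its own substrate: MAO-A with 0.5 mM tyramine, MAO-B with 1 mM benzylamine, DAO with 1 mM putrescine. After 30 min enzyme-compound preincubation at 37 °C, Amplex Red (200 uM) plus HRP (1 U/mL) reports H2O2 as fluorescence; IC50 is fitted from eight-point curves.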

The target of a further experiment is T2, recombinant human VAP-1 (Homo sapiens, UniProt Q16853).
T2 construct: purchased R&D systems
T2 sequence (Q16853 1-763): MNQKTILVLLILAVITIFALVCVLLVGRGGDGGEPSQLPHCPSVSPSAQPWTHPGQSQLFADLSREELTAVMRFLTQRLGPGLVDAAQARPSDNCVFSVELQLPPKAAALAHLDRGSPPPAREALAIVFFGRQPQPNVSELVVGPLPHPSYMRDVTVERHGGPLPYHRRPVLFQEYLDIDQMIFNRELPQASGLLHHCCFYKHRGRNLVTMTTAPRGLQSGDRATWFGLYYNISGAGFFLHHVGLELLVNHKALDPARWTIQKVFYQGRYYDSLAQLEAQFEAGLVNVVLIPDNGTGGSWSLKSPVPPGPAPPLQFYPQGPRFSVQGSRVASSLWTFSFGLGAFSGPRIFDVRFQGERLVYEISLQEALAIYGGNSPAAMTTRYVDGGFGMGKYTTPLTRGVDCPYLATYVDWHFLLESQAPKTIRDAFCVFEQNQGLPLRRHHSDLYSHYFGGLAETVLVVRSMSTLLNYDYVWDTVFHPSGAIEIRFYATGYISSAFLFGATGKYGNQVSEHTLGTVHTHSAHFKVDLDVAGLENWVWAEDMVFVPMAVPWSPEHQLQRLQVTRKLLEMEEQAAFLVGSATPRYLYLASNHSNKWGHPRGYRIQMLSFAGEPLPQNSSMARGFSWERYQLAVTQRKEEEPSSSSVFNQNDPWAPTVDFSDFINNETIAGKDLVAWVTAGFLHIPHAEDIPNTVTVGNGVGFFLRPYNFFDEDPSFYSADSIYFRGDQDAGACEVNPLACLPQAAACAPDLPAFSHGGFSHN
Description: Activity evaluation on recombinant human VAP-1 (Amplex Red/HRP-coupled hydrogen peroxide assay, benzylamine substrate). To be noted: read-out: Inhibitory Activity (IC50, nM) human VAP-1. In a few lines:
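Hydrogen peroxide from benzylamine (1 mM) oxidation by human recombinant VAP-1 detected via HRP-coupled Amplex Red (200 uM) fluorescence, kinetic over 1–2 h. Enzyme and compound preincubated 30 min at 37 °C, pH 7.4 phosphate; 8-point dose response, signal-rate decrease versus DMSO control fitted to four-parameter logistic for IC50.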

Experiment [2] concerns the target T3, recombinant human MAO-B (monoamine oxidase-B) (Homo sapiens, UniProt P27338).
T3 construct: purchased Sigma-Aldrich
T3 sequence (P27338 1-520): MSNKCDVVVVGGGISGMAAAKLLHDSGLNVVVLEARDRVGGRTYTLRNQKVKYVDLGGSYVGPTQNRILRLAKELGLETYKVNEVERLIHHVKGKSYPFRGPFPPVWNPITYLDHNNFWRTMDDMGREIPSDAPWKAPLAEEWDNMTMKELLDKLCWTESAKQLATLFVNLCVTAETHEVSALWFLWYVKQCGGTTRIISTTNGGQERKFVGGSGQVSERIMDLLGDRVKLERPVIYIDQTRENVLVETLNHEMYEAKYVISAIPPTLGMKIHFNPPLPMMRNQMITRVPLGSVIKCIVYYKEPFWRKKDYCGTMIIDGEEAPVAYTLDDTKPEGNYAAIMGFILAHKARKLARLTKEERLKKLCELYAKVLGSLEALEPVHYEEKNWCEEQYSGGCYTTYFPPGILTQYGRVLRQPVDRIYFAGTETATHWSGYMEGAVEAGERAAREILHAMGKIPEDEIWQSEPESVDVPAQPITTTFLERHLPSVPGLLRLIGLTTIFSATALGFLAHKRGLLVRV
Description: Activity evaluation on recombinant human MAO-B (Amplex Red/HRP-coupled assay, 1 mM benzylamine substrate). The settings on record: read-out: Inhibitory Activity (IC50, nM) MAO-B. An outline of the steps: as §1

Experiment [3] addresses T4, recombinant human DAO (diamine oxidase) (Homo sapiens, UniProt P19801).
T4 construct: purchased R&D systems
T4 sequence (P19801 20-751): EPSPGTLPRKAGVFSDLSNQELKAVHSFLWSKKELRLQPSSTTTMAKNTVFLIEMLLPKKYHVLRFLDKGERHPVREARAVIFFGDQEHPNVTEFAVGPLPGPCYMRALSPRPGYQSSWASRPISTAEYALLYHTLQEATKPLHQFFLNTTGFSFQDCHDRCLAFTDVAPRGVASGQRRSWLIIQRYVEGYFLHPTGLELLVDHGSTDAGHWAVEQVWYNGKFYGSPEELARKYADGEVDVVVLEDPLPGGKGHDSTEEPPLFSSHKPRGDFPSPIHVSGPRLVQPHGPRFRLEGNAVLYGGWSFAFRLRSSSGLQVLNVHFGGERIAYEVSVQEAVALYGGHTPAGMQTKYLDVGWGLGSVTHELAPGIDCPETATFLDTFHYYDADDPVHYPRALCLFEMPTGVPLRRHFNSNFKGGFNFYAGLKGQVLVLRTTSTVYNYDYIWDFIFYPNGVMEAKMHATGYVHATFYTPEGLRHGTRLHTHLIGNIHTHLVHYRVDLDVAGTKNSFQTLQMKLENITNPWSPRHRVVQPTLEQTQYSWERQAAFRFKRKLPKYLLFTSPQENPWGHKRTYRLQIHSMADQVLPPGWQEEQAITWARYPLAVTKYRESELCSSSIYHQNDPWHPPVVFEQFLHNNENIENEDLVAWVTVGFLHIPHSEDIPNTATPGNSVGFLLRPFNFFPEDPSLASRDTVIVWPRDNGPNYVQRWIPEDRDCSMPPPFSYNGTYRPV
The experiment can be described thus: Activity evaluation on recombinant human DAO (Amplex Red/HRP-coupled assay, 1 mM putrescine substrate). To be noted: read-out: Inhibitory Activity (IC50, nM) DAO. In a few lines:
as §1

Where [4] appears, read: recombinant human VAP-1, benzylamine substrate.
Where [5] appears, read: recombinant human VAP-1, 30 min preincubation at 37° C., 1 mM benzylamine.

Counter-ions that a name gives are not always drawn. Like-named read-outs stand apart in the source and are kept apart here.

As to `Cc1c(-c2ccc(N(C)C)nc2)cccc1-n1cnn(CC(CN)=C(F)F)c1=O` [Example 256, 2-[2-(aminomethyl)-3,3-difluoro-allyl]-4-[3-[6-(dimethylamino)-3-pyridyl]-2-methyl-phenyl]-1,2,4-triazol-3-one Trifluoroacetate], the IC50 in experiment [1] (0.5 mM tyramine substrate) is greater than 100000 nM; on recombinant human VAP-1 (setting [4]), 2.5 nM; in experiment [2] (1 mM benzylamine substrate) it was greater than 100000 nM; in experiment [3] (1 mM putrescine substrate), greater than 100000 nM.

`Cc1cc(-c2ccc3ocnc3c2)cnc1-n1cnn(CC(CN)=C(F)F)c1=O` [Example 229, 2-[2-(aminomethyl)-3,3-difluoro-allyl]-4-[5-(1,3-benzoxazol-5-yl)-3-methyl-2-pyridyl]-1,2,4-triazol-3-one Trifluoroacetate]: the IC50 in experiment [1] (0.5 mM tyramine substrate) is greater than 10000 nM; on recombinant human VAP-1 (setting [4]) it was 0.6 nM; in experiment [2] (1 mM benzylamine substrate) it was 4100 nM; in experiment [3] (1 mM putrescine substrate), 97000 nM.

In the case of `NCC(Cn1ncn(Cc2cc(-c3ccc(N4CCNCC4)cc3)cs2)c1=O)=C(F)F` [Example 147, 2-[2-(aminomethyl)-3,3-difluoro-allyl]-4-[[4-(4-piperazin-1-ylphenyl)-2-thienyl]methyl]-1,2,4-triazol-3-one Ditrifluoroacetate], the IC50 in experiment [1] (0.5 mM tyramine) was greater than 100000 nM; at recombinant human VAP-1 (setting [5]) it was 11 nM; in experiment [2] (1 mM benzylamine), greater than 100000 nM; in experiment [3] (1 mM putrescine), 2600 nM.

As for `CCn1cc(-c2ccc3sc(Cn4cnn(CC(CN)=C(F)F)c4=O)cc3c2)cn1` [Example 212, 2-[2-(aminomethyl)-3,3-difluoro-allyl]-4-[[5-(1-ethylpyrazol-4-yl)benzothiophen-2-yl]methyl]-1,2,4-triazol-3-one Trifluoroacetate], the IC50 is 79100 nM in experiment [1] (0.5 mM tyramine substrate), 1.5 nM on recombinant human VAP-1 (setting [4]), greater than 100000 nM in experiment [2] (1 mM benzylamine substrate) and 4320 nM in experiment [3] (1 mM putrescine substrate).

On to `CC(C)n1cc(-c2csc(Cn3cnn(CC(CN)=C(F)F)c3=O)c2)ccc1=O` [Example 187, 5-[5-[[1-[2-(aminomethyl)-3,3-difluoro-allyl]-5-oxo-1,2,4-triazol-4-yl]methyl]-3-thienyl]-1-isopropyl-pyridin-2-one Trifluoroacetate], for which the IC50 in experiment [1] (0.5 mM tyramine substrate) was greater than 100000 nM; on recombinant human VAP-1 (setting [4]) it was 1.1 nM; in experiment [2] (1 mM benzylamine substrate), greater than 100000 nM; in experiment [3] (1 mM putrescine substrate), 8900 nM.

On to `Cc1cc(Br)ccc1-n1cnn(CC(CN)=C(F)F)c1=O` [Example 6, 2-[2-(aminomethyl)-3,3-difluoro-allyl]-4-(4-bromo-2-methyl-phenyl)-1,2,4-triazol-3-one trifluoroacetate], for which the IC50 is greater than 100000 nM in experiment [1] (0.5 mM tyramine), 9.4 nM at recombinant human VAP-1 (setting [5]), greater than 100000 nM in experiment [2] (1 mM benzylamine) and greater than 100000 nM in experiment [3] (1 mM putrescine).

The term IC50 denotes the concentration that inhibits the measured activity by half.
